≈ marks a conversion by molar mass, not a printed value. Where “and” joins values, the source holds several entries; their conditions need not be identical. Equal values may be shown once. Read-outs that look alike come from different tables or passages of the source.
Columns and labels:
in vitro [1] = type: cell-based, murine; details: mouse
Method in brief: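 Testing relied on two colorimetric viability methods, WST-1 and MTT, carried out as described in prior work to measure cytotoxic effects.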

M. tuberculosis H37Rv [2] = test: Luminescence-based microbial cell viability assay; set-up: species or system Mycobacterium tuberculosis; details: for RLU/50ul (replicates1-3), single values / RLU/ml (×100) / RLU/50ul (average): Fig 2C
M. bolletii = test: microbe, parasite or virus in culture; type: cell-based, Mycobacterium bolletii; details: Mycobacteroides abscessus
M. kyorinense = test: microbe, parasite or virus in culture; type: cell-based; details: Mycobacterium kyorinense
M. tuberculosis H37Ra = test: microbe, parasite or virus in culture; type: cell-based, Mycobacterium tuberculosis; details: Mycobacterium tuberculosis, H37RA
M. abscessus = test: microbe, parasite or virus in culture; type: cell-based, Mycobacterium abscessus; details: Mycobacteroides abscessus
M. tuberculosis H37Rv [3] = test: microbe, parasite or virus in culture; type: cell-based, Mycobacterium tuberculosis
M. peregrinum = test: microbe, parasite or virus in culture; type: cell-based, Mycobacterium peregrinum; details: Mycolicibacterium peregrinum
M. gordonae = test: microbe, parasite or virus in culture; type: cell-based; details: Mycobacterium gordonae
in vitro [4] = type: cell-based; details: human
Protocol: A549 human pulmonary epithelial cells (KCLB 10185), human embryonic kidney (HEK) 293 cells (KCLB 21573), human THP-1 leukemia cells (KCLB 40202), human neuroblastoma SH-SY5Y cells (KCLB 22266), Murine Raw 264.7 macrophages (KCLB 40071), and L929 murine fibroblasts (KCLB 10001) were purchased from the KCLB (Seoul, Korea). Cytotoxicity testing was performed using the MTT assay and the WST-1 cell viability assay as previously described.

M. tuberculosis H37Rv [5] = type: cell-based, Mycobacterium tuberculosis; details: for CFU/ml (average) / CFU/ml, single values / Intracellular M. tuberculosis, % (Drug Free = 100.0): Fig 3A, H37Rv
M. smegmatis = test: microbe, parasite or virus in culture; type: cell-based, Mycobacterium smegmatis; details: Mycolicibacterium smegmatis
M. arupense = test: microbe, parasite or virus in culture; type: cell-based, Mycobacterium arupense; details: Mycolicibacter arupensis
XDR M. tuberculosis [6] = test: Luminescence-based microbial cell viability assay; set-up: species or system Mycobacterium tuberculosis
M. szulgai = test: microbe, parasite or virus in culture; type: cell-based; details: Mycobacterium szulgai
M. marseiliense = test: microbe, parasite or virus in culture; type: cell-based; details: Mycobacterium
M. marinum = test: microbe, parasite or virus in culture; type: cell-based; details: Mycobacterium marinum
M. bovis = test: microbe, parasite or virus in culture; type: cell-based; details: Mycobacterium tuberculosis variant bovis
M. kansasii = test: microbe, parasite or virus in culture; type: cell-based; details: Mycobacterium kansasii
M. aubagnense = test: microbe, parasite or virus in culture; type: cell-based, Mycobacterium aubagnense; details: Mycolicibacterium aubagnense
M. xenopi = test: microbe, parasite or virus in culture; type: cell-based; details: Mycobacterium xenopi
M. heraklionease = test: microbe, parasite or virus in culture; type: cell-based; details: Mycobacterium
XDR M. tuberculosis [7] = type: cell-based, Mycobacterium tuberculosis
[8] = system: XDR M. tuberculosis (KMRC 00203–00197); type: cell-based, Mycobacterium tuberculosis; details: for log reduction (CFU): 7 days

SMILES: COC(=O)[C@@H]1CCC(=O)N1Cc1cc2ccc(OC)cc2c2cc(OC)c(OC)cc12 [PP1S, (S)-N-[(2,3,6-Trimethoxy-10-phenanthryl)methyl]-pyroglutamic acid methyl ester]
- CC50 (in vitro [1]; L929): > 500 µg/mL
- CC50 (in vitro [1]; L929, MTT assay (Table S1)): > 100 µg/mL
- CC50 (in vitro [1]; RAW, MTT assay (Table S1)): > 100 µg/mL
- CC50 (in vitro [1]; Raw264.7): > 500 µg/mL
- RLU/50ul (replicates1-3), single values (M. tuberculosis H37Rv [2]; drug conc. 0.39): 1910 RLU/50ul and 1870 RLU/50ul and 3370 RLU/50ul and 3410 RLU/50ul and 3790 RLU/50ul and 1810 RLU/50ul and 1790 RLU/50ul and 1970 RLU/50ul and 1850 RLU/50ul
- RLU/ml (×100) (M. tuberculosis H37Rv [2]; drug conc. 0.39): 483.8 RLU/ml (×100)
- RLU/50ul (average) (M. tuberculosis H37Rv [2]; drug conc. 0.39, average of each replicate set): 3523 RLU/50ul and 1857 RLU/50ul and 1877 RLU/50ul
- RLU/50ul (replicates1-3), single values (M. tuberculosis H37Rv [2]; drug conc. 0.78): 1380 RLU/50ul and 1580 RLU/50ul and 2750 RLU/50ul and 2760 RLU/50ul and 3450 RLU/50ul and 2020 RLU/50ul and 2180 RLU/50ul and 1970 RLU/50ul and 1410 RLU/50ul
- RLU/ml (×100) (M. tuberculosis H37Rv [2]; drug conc. 0.78): 433.3 RLU/ml (×100)
- RLU/50ul (average) (M. tuberculosis H37Rv [2]; drug conc. 0.78, average of each replicate set): 2987 RLU/50ul and 2057 RLU/50ul and 1457 RLU/50ul
- RLU/50ul (replicates1-3), single values (M. tuberculosis H37Rv [2]; drug conc. 1.56): 750 RLU/50ul and 850 RLU/50ul and 1460 RLU/50ul and 1290 RLU/50ul and 960 RLU/50ul and 1050 RLU/50ul and 1110 RLU/50ul and 1070 RLU/50ul and 790 RLU/50ul
- RLU/ml (×100) (M. tuberculosis H37Rv [2]; drug conc. 1.56): 207.3 RLU/ml (×100)
- RLU/50ul (average) (M. tuberculosis H37Rv [2]; drug conc. 1.56, average of each replicate set): 1237 RLU/50ul and 1077 RLU/50ul and 797 RLU/50ul
- concentration with significant antitubercular effect (M. tuberculosis H37Rv [2]; luminescence-based assay): 1.56 µg/mL
- MIC (M. bolletii): > 100 µg/mL
- MIC (M. kyorinense): > 100 µg/mL
- MIC (M. tuberculosis H37Ra): 1.6 µg/mL (≈ 3.78 µM)
- MIC (M. abscessus): > 100 µg/mL
- in vitro antitubercular activities (S-form vs R-form) (M. tuberculosis H37Rv [3]): had in vitro antitubercular activities
- MIC (M. tuberculosis H37Rv [3]; Mycobacterium tuberculosis, H37RV, read-out: MIC): 1.6 µg/mL (≈ 3.78 µM)
- SI (CC50/MIC) (M. tuberculosis H37Rv [3]; ratio of CC50 for L929 fibroblasts to MIC for strain H37Rv): >62.5
- MIC (M. peregrinum): > 100 µg/mL
- MIC (M. gordonae): > 100 µg/mL
- CC50 (in vitro [4]; A549): > 500 µg/mL
- CC50 (in vitro [4]; HEK-293): > 500 µg/mL
- CC50 (in vitro [4]; SH-SY5Y): > 500 µg/mL
- CC50 (in vitro [4]; THP-1): > 500 µg/mL
- CFU/ml (average) (M. tuberculosis H37Rv [5]; drug conc. 1.6): 26333 CFU/ml
- CFU/ml, single values (M. tuberculosis H37Rv [5]; drug conc. 1.6): 26400 CFU/ml and 26700 CFU/ml and 25900 CFU/ml
- Intracellular M. tuberculosis, % (Drug Free = 100.0) (M. tuberculosis H37Rv [5]; drug conc. 1.6): 78.3%
- CFU/ml (average) (M. tuberculosis H37Rv [5]; drug conc. 3.1): 21190 CFU/ml
- CFU/ml, single values (M. tuberculosis H37Rv [5]; drug conc. 3.1): 20900 CFU/ml and 22200 CFU/ml and 20470 CFU/ml
- Intracellular M. tuberculosis, % (Drug Free = 100.0) (M. tuberculosis H37Rv [5]; drug conc. 3.1): 63.0%
- CFU/ml (average) (M. tuberculosis H37Rv [5]; drug conc. 6.3): 15203 CFU/ml
- CFU/ml, single values (M. tuberculosis H37Rv [5]; drug conc. 6.3): 15200 CFU/ml and 14100 CFU/ml and 16310 CFU/ml
- Intracellular M. tuberculosis, % (Drug Free = 100.0) (M. tuberculosis H37Rv [5]; drug conc. 6.3): 45.2%
- CFU/ml (average) (M. tuberculosis H37Rv [5]; drug conc. 12.5): 8003 CFU/ml
- CFU/ml, single values (M. tuberculosis H37Rv [5]; drug conc. 12.5): 8000 CFU/ml and 7500 CFU/ml and 8510 CFU/ml
- Intracellular M. tuberculosis, % (Drug Free = 100.0) (M. tuberculosis H37Rv [5]; drug conc. 12.5): 23.8%
- CFU/ml (average) (M. tuberculosis H37Rv [5]; drug conc. 25): 707 CFU/ml
- Intracellular M. tuberculosis, % (Drug Free = 100.0) (M. tuberculosis H37Rv [5]; drug conc. 25): 2.1%
- growth of M. tuberculosis in macrophages (CFU) (M. tuberculosis H37Rv [5]; H37Rv in Raw 264.7 cells, 3 days, concentration-dependent): significantly inhibited the growth
- MIC (M. smegmatis): > 100 µg/mL
- MIC (M. arupense): > 100 µg/mL
- RLU/50ul (replicates1-3), single values (XDR M. tuberculosis [6]): 370 RLU/50ul (2×) and 430 RLU/50ul and 270 RLU/50ul and 260 RLU/50ul and 320 RLU/50ul and 360 RLU/50ul and 340 RLU/50ul and 390 RLU/50ul and 420 RLU/50ul and 450 RLU/50ul and 590 RLU/50ul and 610 RLU/50ul and 670 RLU/50ul and 570 RLU/50ul and 550 RLU/50ul (2×) and 460 RLU/50ul and 440 RLU/50ul and 630 RLU/50ul and 790 RLU/50ul and 540 RLU/50ul and 580 RLU/50ul and 840 RLU/50ul and 860 RLU/50ul and 750 RLU/50ul and 640 RLU/50ul
- RLU/ml (×100) (XDR M. tuberculosis [6]): 69.1 RLU/ml (×100) and 105.8 RLU/ml (×100) and 137.3 RLU/ml (×100)
- concentration with significant antitubercular effect (XDR M. tuberculosis [6]): 1.56 µg/mL and 0.78 µg/mL
- MIC (M. szulgai): > 100 µg/mL
- MIC (M. marseiliense): > 100 µg/mL
- MIC (M. marinum): > 100 µg/mL
- MIC (M. bovis): 1.6 µg/mL (≈ 3.78 µM)
- MIC (M. kansasii): > 100 µg/mL
- MIC (M. aubagnense): > 100 µg/mL
- MIC (M. xenopi): > 100 µg/mL
- MIC (M. heraklionease): > 100 µg/mL
- RFU/200 μl (replicates1-3), single values (XDR M. tuberculosis [7]): 28550 RFU/200 μl (2×) and 31600 RFU/200 μl and 31980 RFU/200 μl and 30880 RFU/200 μl and 29180 RFU/200 μl and 29520 RFU/200 μl and 28730 RFU/200 μl and 28570 RFU/200 μl and 47010 RFU/200 μl and 47100 RFU/200 μl and 48600 RFU/200 μl and 48210 RFU/200 μl and 50840 RFU/200 μl and 43460 RFU/200 μl and 43510 RFU/200 μl and 43540 RFU/200 μl and 47050 RFU/200 μl and 50580 RFU/200 μl and 50770 RFU/200 μl and 53600 RFU/200 μl and 53640 RFU/200 μl and 54810 RFU/200 μl and 45790 RFU/200 μl and 45690 RFU/200 μl and 45900 RFU/200 μl and 50680 RFU/200 μl
- RFU/ml (×104) (XDR M. tuberculosis [7]): 14.9 RFU/ml (×104) and 23.3 RFU/ml (×104) and 25.1 RFU/ml (×104)
- concentration with significant antitubercular effect (XDR M. tuberculosis [7]): 1.56 µg/mL and 0.78 µg/mL
- CFU (replicates1-3), single values [8]: 9800 CFU and 11000 CFU and 9100 CFU and 4200 CFU and 13900 CFU and 20700 CFU and 20100 CFU and 12600 CFU and 16500 CFU and 28000 CFU and 112000 CFU and 92700 CFU and 90100 CFU and 36800 CFU and 38700 CFU and 24400 CFU and 24700 CFU and 22500 CFU
- log reduction (CFU) ([8]; at 0.8 μg/ml): 0.8
- log reduction (CFU) ([8]; at 1.6 μg/ml): 1.3
